Test results reported in patent US20250313535A1, “ALPHA 4 BETA 7 INTEGRIN MODULATORS AND USES THEREOF” (DICE MOLECULES SV, INC., priority 2022, published 2025).

Legend:
[1] = target: α4β7 integrin (Homo sapiens (Human), UniProt P13612+P26010); assay: Integrin Adhesion Assay: Protocol 4 (MAdCAM-coated plate, RPMI-8866 cells with stable LOF mutation of the ITGB1 gene); assay type: cell-based; conditions: Protocol 4; RPMI-8866 cells with LOF mutation of ITGB1, MAdCAM; read-out: Mean IC50 α4β7 KO
In short: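 RPMI-8866 cells with CRISPR/Cas9 knockout of ITGB1 (2×10^6/mL) were added to MAdCAM-coated wells with compound (1% DMSO) in HEPES/NaCl buffer with 1 mM MnCl2, 0.1 mM CaCl2 and 1% BSA, then incubated 1 h at 37 °C. After four washes, adherent cells were quantified by CellTiter-Glo luminescence. Percent inhibition versus DMSO and control compound was fitted to 4-parameter curves.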

[2] = target: α4β1 integrin (Homo sapiens (Human), UniProt P05556+P13612); assay: Integrin Adhesion Assay: Protocol 5 (VCAM-coated plate, RPMI-8866 cells with stable LOF mutation of the ITGB7 gene); assay type: cell-based; conditions: Protocol 5; RPMI-8866 cells with LOF mutation of ITGB7, VCAM; read-out: Mean IC50 α4β1 KO
Sequence of α4β1 integrin (P13612 34-1032): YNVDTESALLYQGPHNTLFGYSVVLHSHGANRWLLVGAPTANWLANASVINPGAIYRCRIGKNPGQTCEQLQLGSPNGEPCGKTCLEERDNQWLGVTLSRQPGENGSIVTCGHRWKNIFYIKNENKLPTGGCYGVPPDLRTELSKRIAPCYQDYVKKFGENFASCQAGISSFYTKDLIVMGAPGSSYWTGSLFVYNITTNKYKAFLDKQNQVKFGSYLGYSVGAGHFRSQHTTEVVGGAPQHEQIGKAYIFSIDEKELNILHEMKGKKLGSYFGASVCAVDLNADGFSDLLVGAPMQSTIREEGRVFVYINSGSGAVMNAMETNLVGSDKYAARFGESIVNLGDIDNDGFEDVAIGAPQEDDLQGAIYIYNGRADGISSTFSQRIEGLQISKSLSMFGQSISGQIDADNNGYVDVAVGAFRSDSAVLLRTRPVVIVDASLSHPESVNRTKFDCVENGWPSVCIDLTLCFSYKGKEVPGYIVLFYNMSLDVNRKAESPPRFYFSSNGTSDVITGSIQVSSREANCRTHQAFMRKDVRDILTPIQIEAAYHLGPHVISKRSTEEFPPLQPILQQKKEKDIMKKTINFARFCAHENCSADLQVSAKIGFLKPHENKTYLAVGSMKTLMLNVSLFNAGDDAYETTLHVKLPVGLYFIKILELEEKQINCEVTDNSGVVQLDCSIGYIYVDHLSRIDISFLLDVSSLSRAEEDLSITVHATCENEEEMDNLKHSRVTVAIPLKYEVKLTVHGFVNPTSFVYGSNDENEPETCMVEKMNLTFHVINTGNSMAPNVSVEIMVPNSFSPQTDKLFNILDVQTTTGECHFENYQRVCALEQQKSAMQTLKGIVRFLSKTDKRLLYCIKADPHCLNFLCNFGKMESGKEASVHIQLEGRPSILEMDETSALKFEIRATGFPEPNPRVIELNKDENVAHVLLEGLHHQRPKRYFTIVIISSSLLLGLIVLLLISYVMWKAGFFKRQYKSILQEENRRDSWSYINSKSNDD
Sequence of α4β1 integrin (P05556 21-798): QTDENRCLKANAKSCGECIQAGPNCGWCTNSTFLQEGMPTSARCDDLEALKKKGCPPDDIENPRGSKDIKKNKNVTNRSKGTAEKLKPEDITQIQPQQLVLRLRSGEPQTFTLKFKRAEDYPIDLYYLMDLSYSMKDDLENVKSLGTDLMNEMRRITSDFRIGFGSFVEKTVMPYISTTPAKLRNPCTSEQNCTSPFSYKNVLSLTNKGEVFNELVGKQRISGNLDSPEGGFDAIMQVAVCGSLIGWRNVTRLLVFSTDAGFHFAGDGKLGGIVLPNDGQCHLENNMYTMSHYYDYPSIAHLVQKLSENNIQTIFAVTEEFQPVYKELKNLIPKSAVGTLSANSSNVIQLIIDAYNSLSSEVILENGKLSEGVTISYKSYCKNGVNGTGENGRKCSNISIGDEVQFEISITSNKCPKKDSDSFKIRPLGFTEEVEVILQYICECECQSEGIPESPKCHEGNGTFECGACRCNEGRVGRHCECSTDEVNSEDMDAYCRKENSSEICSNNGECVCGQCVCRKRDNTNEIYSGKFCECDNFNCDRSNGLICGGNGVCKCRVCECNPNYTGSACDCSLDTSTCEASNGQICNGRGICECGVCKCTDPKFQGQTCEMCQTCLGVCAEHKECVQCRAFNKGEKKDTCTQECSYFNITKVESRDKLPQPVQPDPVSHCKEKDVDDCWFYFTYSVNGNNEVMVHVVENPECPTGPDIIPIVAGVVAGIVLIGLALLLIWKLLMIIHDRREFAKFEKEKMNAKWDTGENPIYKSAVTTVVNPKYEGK
In short: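 RPMI-8866 B cells with CRISPR/Cas9 ITGB7 knockout (clonal, verified by flow cytometry) adhered to VCAM-coated wells for 1 h at 37° C in HEPES/NaCl buffer with 1 mM MnCl2, 0.1 mM CaCl2, 1% BSA, 1% DMSO. Bound cells quantified by CellTiter-Glo luminescence after washing; % inhibition versus DMSO and control, 4-parameter fit.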

Sequence of α4β7 integrin (P13612 34-1032): as the sequence (P13612 34-1032) above
Sequence of α4β7 integrin (P26010 20-798): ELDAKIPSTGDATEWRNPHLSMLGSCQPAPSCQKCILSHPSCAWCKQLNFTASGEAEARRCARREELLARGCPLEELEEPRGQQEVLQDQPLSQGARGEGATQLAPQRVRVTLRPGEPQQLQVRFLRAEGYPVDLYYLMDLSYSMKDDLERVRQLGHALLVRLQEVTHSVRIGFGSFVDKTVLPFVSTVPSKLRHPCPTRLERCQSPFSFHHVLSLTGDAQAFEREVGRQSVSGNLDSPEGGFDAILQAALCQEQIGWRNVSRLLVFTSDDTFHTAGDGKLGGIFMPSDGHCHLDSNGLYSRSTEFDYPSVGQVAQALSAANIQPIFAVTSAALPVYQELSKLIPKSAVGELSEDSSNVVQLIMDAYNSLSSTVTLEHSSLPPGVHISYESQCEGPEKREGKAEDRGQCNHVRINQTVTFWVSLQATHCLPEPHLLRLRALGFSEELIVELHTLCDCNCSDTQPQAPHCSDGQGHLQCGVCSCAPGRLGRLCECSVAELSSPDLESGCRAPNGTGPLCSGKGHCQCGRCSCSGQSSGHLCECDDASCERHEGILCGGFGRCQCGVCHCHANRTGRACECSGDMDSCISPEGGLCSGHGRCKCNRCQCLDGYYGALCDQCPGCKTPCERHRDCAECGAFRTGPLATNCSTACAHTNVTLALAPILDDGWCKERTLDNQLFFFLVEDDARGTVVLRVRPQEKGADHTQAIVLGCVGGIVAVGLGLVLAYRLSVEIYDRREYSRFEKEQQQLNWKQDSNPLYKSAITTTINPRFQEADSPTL

Compound | IC50 [1] [nM] | IC50 [2] [nM]
COc1cc(CN2CCC(F)(F)CC2)cnc1-c1cccc2c(C[C@H](NC(=O)C3(C(F)(F)F)CCN(CC(F)F)CC3)C(=O)O)cccc12 [Compound 928] | < 10 | > 1000
CC[C@H]1CCCCN1Cc1cnc(-c2cccc3c(C[C@H](NC(=O)C4(C(F)(F)F)CCN(CC(F)(F)F)CC4)C(=O)O)cccc23)c2ccccc12 [Compound 929] | < 10 | 100 to 1000
CC[C@H]1CCCCN1Cc1cnc(-c2cccc3c(C[C@H](NC(=O)C4(C(F)(F)F)CCN(CC(F)F)CC4)C(=O)O)cccc23)c2ccccc12 [Compound 930] | < 10 | 100 to 1000
CC[C@@H]1CCCCN1Cc1cnc(-c2cccc3c(C[C@H](NC(=O)C4(C(F)(F)F)CCN(CC(F)(F)F)CC4)C(=O)O)cccc23)c2ccccc12 [Compound 931] | < 10 | 100 to 1000
CC[C@H]1CCCN1Cc1cnc(-c2cccc3c(C[C@H](NC(=O)C4(C(F)(F)F)CCN(CC(F)(F)F)CC4)C(=O)O)cccc23)c2ccccc12 [Compound 933] | < 10 | 100 to 1000
CC[C@H]1CCCN1Cc1cnc(-c2cccc3c(C[C@H](NC(=O)C4(C(F)(F)F)CCN(CC(F)F)CC4)C(=O)O)cccc23)c2ccccc12 [Compound 934] | < 10 | 100 to 1000
CC[C@@H]1CCCN1Cc1cnc(-c2cccc3c(C[C@H](NC(=O)C4(C(F)(F)F)CCN(CC(F)(F)F)CC4)C(=O)O)cccc23)c2ccccc12 [Compound 935] | < 10 | > 1000
CC[C@@H]1CCCN1Cc1cnc(-c2cccc3c(C[C@H](NC(=O)C4(C(F)(F)F)CCN(CC(F)F)CC4)C(=O)O)cccc23)c2ccccc12 [Compound 936] | < 10 | 100 to 1000
COc1ccc(CN2CCC(F)CC2)cc1-c1cccc2c(C[C@H](NC(=O)C3(C(F)(F)F)CCN(CC(F)F)CC3)C(=O)O)cccc12 [Compound 940] | < 10 | 100 to 1000
COc1ccc(CN2CCC(C)(C)CC2)cc1-c1cccc2c(C[C@H](NC(=O)C3(C(F)(F)F)CCN(CC(F)F)CC3)C(=O)O)cccc12 [Compound 942] | < 10 | 100 to 1000

Next, values leading:

IC50 [1] [nM] | IC50 [2] [nM] | Compound
< 10 | 10 to 100 | COc1ccc(CN2CC[C@H](F)C2)cc1-c1cccc2c(C[C@H](NC(=O)C3(C(F)(F)F)CCN(CC(F)F)CC3)C(=O)O)cccc12 [Compound 943]
< 10 | 100 to 1000 | COc1ccc(CN2CC[C@@H](F)C2)cc1-c1cccc2c(C[C@H](NC(=O)C3(C(F)(F)F)CCN(CC(F)F)CC3)C(=O)O)cccc12 [Compound 944]
< 10 | > 1000 | Cc1cc(CN2CCC(C)(C)CC2)cnc1-c1cccc2c(C[C@H](NC(=O)C3(C(F)(F)F)CCN(C4COC4)CC3)C(=O)O)cccc12 [Compound 945]
10 to 100 | 100 to 1000 | COc1ccc(CN2CCC(F)(F)CC2)c(OC)c1-c1cccc2c(C[C@H](NC(=O)C3(C(F)(F)F)CCN(CC(F)F)CC3)C(=O)O)cccc12 [Compound 946]
< 10 | 100 to 1000 | O=C(O)[C@H](Cc1cccc2c(-c3ncc(CN4CCC(F)(F)CC4)cc3C3CC3)cccc12)NC(=O)C1(C(F)(F)F)CCN(CC(F)(F)F)CC1 [Compound 947]
< 10 | 100 to 1000 | O=C(O)[C@H](Cc1cccc2c(-c3ncc(CN4CCN(C5CC5)CC4)cc3C3CC3)cccc12)NC(=O)C1(C(F)(F)F)CCN(CC(F)(F)F)CC1 [Compound 948]
< 10 | > 1000 | O=C(O)[C@H](Cc1cccc2c(-c3ncc(CN4CCC[C@@H](F)C4)cc3C3CC3)cccc12)NC(=O)C1(C(F)(F)F)CCN(CC(F)(F)F)CC1 [Compound 949]
< 10 | > 1000 | O=C(O)[C@H](Cc1cccc2c(-c3ncc(CN4CCC[C@H](F)C4)cc3C3CC3)cccc12)NC(=O)C1(C(F)(F)F)CCN(CC(F)(F)F)CC1 [Compound 950]
< 10 | 100 to 1000 | O=C(O)[C@H](Cc1cccc2c(-c3ncc(CN4CCC(F)(F)CC4)cc3C3CC3)cccc12)NC(=O)C1(C(F)(F)F)CCN(CC(F)F)CC1 [Compound 951]
